Data taken from patent US20220062233A1 (The Board of Trustees of the Leland Stanford Junior …, priority 2018, published 2022).
Where two headings read alike, the source gives them in different places.

Assays:
[1] = target: T1, interaction between Supt4h and NGN (subunit of Supt5h) (Homo sapiens, UniProt O00267+P63272); experiment: Split Gaussia luciferase complementation assay (M2-8 Luciferase); format: cell-based; details: M2-8 cells
T1 construct: expressed in transfected cells
Protocol: A. Split Gaussia Luciferase Complementation Assay […]
i: pNBR-X1-Supt4-Gluc1 and pNEBR-X1-NGN-Gluc2
The HA-Supt4h and Flag-NGN fragments are amplified by PCR using the plasmid pHA-Supt4h-YC and pFlag-NGN-YN and sub-cloned individually into pcDNA3.1-Gluc1 and pcDNA3.1-Gluc2 (described in “A highly sensitive protein-protein interaction assay based on Gaussia luciferase” published at Nat Methods. 2006 December; 3(12):977-9. Epub 2006 Nov. 12). Then HA-Supt4h-Gluc1 and Flag-NGN-Gluc2 are amplified by PCR and inserted to pNEBR-X1-Hygro (New England BioLabs), which contain RheoSwitch responsive element under the control of RheoSwitch ligand. […]
ii: pNEBR-X1-Supt4h-G1-NGN-G2
PCR products containing the sequence from 5XRE to polyA in pNEBR-X1-NGN-G2 are inserted to pNEBR-X1-Supt4h-G1 at Pcil site to generate Supt4h-G1 and NGN-G2 bidirectional under their own RheoSwitch responsive element and polyA in the same plasmid. […]
b. Stable Cloned Cell Line i: 293-R1 is a cloned cell line which is engineered to constitutively express RSL1 receptor/activator by transfecting HEK 293 cells with pNEBR-R1 plasmid (New England BioLabs) and selected with blasticidin. […]
ii: M2-8 is a cloned 293-R1 cell which can inducibly express pNEBR-X1-Supt4h-G1-NGN-G2 by addition of RSL1. Two point mutations ([…] and M110I) are introduced to the GL1 and GL2 for better stability according to “A high-throughput cell-based Gaussia luciferase reporter assay for identifying modulators of fibulin-3 secretion” published in J Biomol Screen. 2013 July; 18(6):647-58. The cell line is selected by hygromycin. […]
c. Cell Culture and Transfection Condition
All the HEK-293 cells and derivative clones are maintained in DMEM containing 10% FBS plus corresponding antibiotics (250 μg/ml hygromycin B, 10 μg/ml blasticidin or both) at 37° C., 5% CO2. All the transfections are done by using Lipofectamine 2000 (Invitrogen) according to the manufacturer's instructions. […]
d. Bioluminescence Assay from Cell Lysates
Plasmids harboring the Gluc1 and Gluc2 are co-transfected in a 1:1 ratio into 293-R1 cells plated on tissue culture treated 24-well plates using Lipofectamine 2000 according to the manufacturer's instructions. For stable M2-8 cells, the cells are directly plated into 96-well or 384-well white plates. Twenty-four hours later, RheoSwitch ligand with or without test compound is added to the cells for induction/drug treatment. After 24 hr, the cells are washed with PBS and the plate was stored at −20° C. overnight. Lysis buffer [30 mM Tris-HCl (pH 8.0) 5 mM NaCl, 0.1% Triton X-100] with 10 μg/ml native coelenterazine (Nanolight Technology) is then added to the cells at room temperature for one hour in the dark. After shaking for about 1 min, 40 μl of cell lysate are transferred to a white 96-well plate. For M2-8 in white micro plate, no transfer is needed. Signal intensities (integrated 100 ms) were read on Tecan Infinite M200 or M1000.
The split Gaussia luciferase complementation assay measures the interaction between Sup4h and NGN. NGN is the subunit of Supt5h that binds to Supt4h.

[2] = test system: M2-8 cells; experiment: M2-8 Cell viability Assay; format: cell-based; details: at the concentration of 1000 nM
[3] = test system: mutant HTT; experiment: Mutant HTT assay in lymphoblastoid cells (LBC), Western blot; format: cell-based, human; details: read-out: LBC IC20 (nM) mHTT, 3 days compound treatment
Protocol: (§1) B. Mutant and Wild-Type HTT Assay in Lymphoblastoid Cells (LBC)
(§2) a. Cell Culturing and Compound Treatment
(§3) Lymphoblastoid cells derived from a Huntington's disease patient with 250 CAG repeats in the mutant HTT allele (GM14044 from Coriell Institute) were cultured in RPMI 1640 (Corning Cellgro, 10-040-CV) containing fetal bovine serum (Atlanta Biologicals, S11150). 4×10^5 cells were seeded on a 24-well plate and incubated with testing compound for 3 days. The cell suspension was then transferred to a 1.5 ml Eppendorf tube. Cells were collected by centrifugation and washed once with PBS. After all liquid was removed, the cell pellet was placed at −80° C. for at least 10 minutes. Lysis buffer [30 mM Tris-HCl (pH 8.0), 5 mM NaCl, 0.1% Triton X-100] with the proteinase inhibitor cocktail (P8340 from Sigma-Aldrich) was then added to the cells. Following centrifugation (14 k rpm for 15 min at 4° C.), the supernatant was collected. The protein concentrations were determined by BCA assay (Pierce, ThermoFisher).
(§4) Equal amounts of protein were loaded onto 4-12% gel (Invitrogen, WG1403A). After electrophoresis, the gels were transferred to nitrocellulose membranes by wet transfer at 72V for 3 hrs. […] The protein levels of mutant HTT, wild-type HTT, TBP, and tubulin were determined by immunoblotting with anti-polyQ specific antibody (clone MW1), anti-Huntingtin antibody (Abcam, ab45169), anti-TBP antibody (Sigma, T1827) and anti-alpha tubulin antibody (Sigma, T9026). Blots were imaged on a Li-Cor Odyssey infrared imager. The band intensities were determined by Li-Cor Odyssey software.

[4] = test system: wild-type HTT; experiment: Wild-type HTT assay in lymphoblastoid cells (LBC), Western blot; format: cell-based, human
Protocol: as §1, §2, §3, §4

[5] = test system: mutant HTT; experiment: Mutant HTT assay in induced pluripotent stem cells (iPSC); format: cell-based, human; details: HD patient iPSCs, one day incubation; numeric bounds; read-out: iPSC IC20 (nM) mHTT
Protocol: C. Mutant HTT Assay in Induced Pluripotent Stem Cells (iPSC) a. Cell Culturing and Compound Treatment
Huntington's disease patient iPSCs (ND50036 from NINDS) were detached into single cells by Accutase (25058CI from Corning), counted and plated on a 24-well plate coated with Matrigel (354277 from Corning) at density of 7,000 cells/well. After 48 hrs, compounds were added to the cell culture medium mTeSR1 (85850 from StemCell Technologies) and the cells were incubated for one day. The medium was then removed, and the cells were washed with PBS. After all liquid was removed, the plate was placed at −80° C. overnight. Lysis buffer [30 mM Tris-HCl (pH 8.0), 5 mM NaCl, 0.1% Triton X-100] with the complete proteinase inhibitor cocktail (5892791001 from Sigma-Aldrich) was then added to the cells. Cell samples were lysed on an orbital plate shaker at 4° C. at 700 rpm for 30 min. The supernatants from spinning (14 k rpm for 10 min) were collected. The protein concentrations were determined by BCA assay (23225 from Pierce, ThermoFisher). […]
b. Detection of Mutant HTT Protein
Equal amounts of protein lysate collected from each sample were added to a 96-well plate that had been coated with a human HTT specific monoclonal antibody. After washing away any unbound substances, a biotinylated anti-human mutant HTT specific detection antibody was added. Streptavidin-horseradish peroxidase was subsequently added, followed by TMB Substrate Solution, which yielded a blue product that turns yellow when the Stop Solution was added. The intensity of the color measured was in proportion to the amount of mutant HTT bound in the initial step. The mutant HTT values are then interpolated from a standard curve.

[6] = test system: Lymphoblastoid cells (GM14044); experiment: LBC cell viability (Cell Titer-Glo); format: cell-based, human; details: at the concentration of IC20, 3-day compound treatment
Protocol: Cell viability was determined by Cell Titer-Glo reagent (Promega, PRG9243). After 3-day compound treatment, 15 μl of cell suspension was taken out from plate and incubated with 10 μl of CTG reagent. The values of reaction mixture were detected by Tecan.

[7] = 3 days compound treatment, read-out: LBC IC20 (nM) wtHTT

Row | SMILES | IC50 [1] [nM] | M2-8 Cell viability [2] | IC20 [3] [nM] | IC20 [4, 7] [nM] | IC20 [5] [nM] | LBC viability at IC20 [6] | IC20 ([4]; read-out: LBC IC20 (nM) wtHTT, 3 days compound treatment) [nM]
1 | OB(O)c1cccc(CN[C@@H]2CCCc3c2[nH]c2ccc(Br)cc32)c1 (single isomer, unassigned) [Compound 39] | ≤ 100 | + (cell viability is greater than 50% at the concentration of 1000 nM) | > 1000 | > 1000 | > 100 |  | 
2 | COc1cccc(CN[C@@H]2CCCc3c2[nH]c2ccc(Br)cc32)c1 [Compound 24, (R)-6-bromo-N-(3-methoxybenzyl)-2,3,4,9-tetrahydro-1H-carbazol-1-amine] | ≤ 100 | + (cell viability is greater than 50% at the concentration of 1000 nM) | 101 to 300 | > 1000 |  | * (cell viability is greater than 60% at the concentration of IC20) | 
3 | COCc1ccc(CN[C@@H]2CCCc3c2[nH]c2ccc(Br)cc32)cc1 [Compound 27, (R)-6-bromo-N-(4-(methoxymethyl)benzyl)-2,3,4,9-tetrahydro-1H-carbazol-1-amine] | ≤ 100 | + (cell viability is greater than 50% at the concentration of 1000 nM) | 101 to 300 | > 1000 |  | * (cell viability is greater than 60% at the concentration of IC20) | 
4 | N#Cc1ccc(CN[C@@H]2CCCc3c2[nH]c2ccc(Br)cc32)cc1 [Compound 26, (R)-4-(((6-bromo-2,3,4,9-tetrahydro-1H-carbazol-1-yl)amino)methyl)benzonitrile] | 101 to 300 | + (cell viability is greater than 50% at the concentration of 1000 nM) | 101 to 300 |  |  | * (cell viability is greater than 60% at the concentration of IC20) | > 1000
5 | Nc1ccc(CN[C@@H]2CCCc3c2[nH]c2ccc(Br)cc32)cc1 [Compound 21, (R)—N-(4-aminobenzyl)-6-bromo-2,3,4,9-tetrahydro-1H-carbazol-1-amine] | ≤ 100 | + (cell viability is greater than 50% at the concentration of 1000 nM) | 101 to 300 | > 1000 |  | * (cell viability is greater than 60% at the concentration of IC20) | 
6 | Brc1ccc2[nH]c3c(c2c1)CCC[C@H]3NCc1cccc2ccccc12 [Compound 19, (R)-6-bromo-N-(naphthalen-1-ylmethyl)-2,3,4,9-tetrahydro-1H-carbazol-1-amine] | ≤ 100 | + (cell viability is greater than 50% at the concentration of 1000 nM) | 101 to 300 | > 1000 |  | * (cell viability is greater than 60% at the concentration of IC20) | 
7 | COCC(N[C@@H]1CCCc2c1[nH]c1ccc(Br)cc21)c1ccc(C(C)(C)O)cc1 (single isomer, unassigned) [Compound 53] | 101 to 300 | + (cell viability is greater than 50% at the concentration of 1000 nM) | > 1000 | > 500 | > 100 |  | 
8 | c1ccc(CN[C@@H]2CCCc3c2[nH]c2ccccc32)cc1 [Compound 4, (R)—N-benzyl-2,3,4,9-tetrahydro-1H-carbazol-1-amine] | > 1000 | + (cell viability is greater than 50% at the concentration of 1000 nM) |  |  |  |  | 
9 | N[C@@H]1CCCc2c1[nH]c1ccc(Br)cc21 [Compound 15] | > 1000 | + (cell viability is greater than 50% at the concentration of 1000 nM) |  |  |  |  | 
10 | O=[N+]([O-])c1ccc(CN[C@@H]2CCCc3c2[nH]c2ccc(Br)cc32)cc1 [Compound 30, (R)-6-bromo-N-(4-nitrobenzyl)-2,3,4,9-tetrahydro-1H-carbazol-1-amine] | 101 to 300 | + (cell viability is greater than 50% at the concentration of 1000 nM) |  |  |  |  | 
11 | COc1ccc(CN[C@@H]2CCCc3c2[nH]c2ccc(Br)cc32)cc1 [Compound 25, (R)-6-bromo-N-(4-methoxybenzyl)-2,3,4,9-tetrahydro-1H-carbazol-1-amine] | 101 to 300 | + (cell viability is greater than 50% at the concentration of 1000 nM) | 301 to 1000 | > 1000 |  | * (cell viability is greater than 60% at the concentration of IC20) | 
12 | CC1(C)Cc2c([nH]c3ccc(Br)cc23)[C@H](NCc2ccccc2)C1 [Compound 17] | > 1000 | + (cell viability is greater than 50% at the concentration of 1000 nM) |  |  |  |  | 
13 | Oc1ccc(-c2ccc3[nH]c4c(c3c2)CCC[C@H]4NCc2ccccc2)cc1 [Compound 10, (R)-4-(1-(benzylamino)-2,3,4,9-tetrahydro-1H-carbazol-6-yl)phenol] | > 1000 | + (cell viability is greater than 50% at the concentration of 1000 nM) |  |  |  |  | 
